As usually defined, the CC50 is the concentration that lowers cell viability or growth by half.

The source of these data is patent US20130190289A1, “COMPOUNDS AND METHODS FOR THE TREATMENT OR PREVENTION OF FLAVIVIRUS INFECTIONS” (priority 2010, published 2013).

Series [1] concerns HCV replicon (genotype 1b) in Huh7 cell line ET. In words: microbe, parasite or virus in culture. In kind it is cell-based, HCV genotype 1b. Particulars: read-out: HCV-Replicon-(Luci-ET) 1b_IC50. (Replicon systems follow genome replication, usually without infectious particles.)
The test system of series [2] is Huh-7 ET, Molt-4, DU-145, Hep-G2 and SH-SY5Y cells. In words: [3H]Thymidine incorporation assay (cell toxicity). The conditions noted are these: read-out: [3H]Thymidine CC50; [3H]thymidine incorporation, cell toxicity; mean value class; cell line not given.
The subject of series [3] is HCV sub-genomic replicon of genotype 1a in replicon cell line W11.8. In words: microbe, parasite or virus in culture. In kind it is cell-based, HCV genotype 1a. The conditions noted are these: read-out: HCV-Replicon-ELISA-1a IC50. The source says: This procedure below describes the HCV replicon assay using a Huh7 hepatoma cell line harboring a highly cell culture-adapted replicon (genotype 1b) (hereafter named cell line ET). The ET cells contained the highly cell culture-adapted replicon I389luc-ubi-neo/NS3-3′/5.1 construct that carried, in addition to the neomycin gene, an integrated copy to the firefly luciferase gene (Krieger, N; Lohmann, V; Bartenschlager, R. Enhancement of hepatitis C virus RNA replication by cell culture-adaptive mutations. J. Virol. 2001, 75, 4614-4624). A replicon cell line W11.8, containing the 1a genotype of HCV was also used. These two cell lines (genotype 1b and 1a) allowed measurement of RNA replication and translation by measuring luciferase activity (against genotype 1b) or by measuring the NS5A level using the ELISA assay (against genotype 1a). […] ET cell lines were maintained in cultures at a sub-confluent level (<85%). The culture media used for cell passaging consisted of DMEM (Gibco BRL Laboratories, Mississauga, ON, Canada) supplemented with 10% fetal bovine serum with 1% penicilin/streptomycin, 1% glutamine, 1% sodium pyruvate, 1% non-essential amino acids, and 180 µg/ml of G418 final concentration.
Replicon cell lines W11.8 containing a sub-genomic replicon of genotype 1a was used for the HCV Replicon Cell-Based detection using the ELISA. The RNA replication in presence of different drug concentrations was indirectly measured in these cell lines by the level of NS5A protein content upon drug treatment for four days. The NS5A is a non-structural protein of HCV and is used as marker of HCV replication in this assay.
For the treatment of the cells with the testing drug, Culture medium was removed from the 175 cm^2 T-flask by aspiration. Cell monolayer was rinsed with 10-20 mL of PBS 1× at room temperature. PBS was removed by aspiration. Cells were trypsinized using 3 mL of Trypsin (0.25%)/EDTA (0.1%) solution. Flasks were incubated at 37° C. (incubator) for 7 minutes. Complete medium (9 mL) without G418 is then added. Cell clumps were disrupted by pipetting up and down several times.
The cell suspension was then transferred to a 50 mL Falcon polypropylene tube. Cells were then counted several times using the haemocytometer. Cells were diluted at 50,000 cells/mL with complete DMEM without G418, then transferred into a sterile reservoir. Using a multichannel pipet, approximately 5,000 viable cells (100 μL) were plated per well in a white opaque 96-well microtiter plate. After an incubation period of 2-4 hours at 37° C. in a 5% CO2 incubator, compounds were added at various concentrations.
Drugs were resuspended in DMSO at a stock concentration of 100 mM or 10 mM. […] Then, drugs were diluted at twice the final concentration in the same medium (without G418) described earlier, in sterile 96-deep well plate and according to a particular template (see Appendix). One volume (100 μL) of each drug dilution was then added to each well that contains cells.
Sixteen wells were used as control (0% inhibition) without drug. Eight wells were used as background control (100% inhibition) containing 2 μM (final concentration) of the reference compound. […] Values from 100% inhibited wells were averaged and used as the background value. Cells are further incubated for 4 days at 37° C. in a 5% CO2 incubator.
For the measurement of NS5A protein content, following the incubation time of four days, the media was throwed into an appropriate waste container by inverting the plate. Any residual liquid was removed by tapping gently on absorbent paper several times. The plates were then washed once with 150 μL of PBS per well, and then incubated for 5 minutes at room temperature on a shaker (500 rpm).

Take `COC(C)C(C(=O)N(C)C)N(C(=O)C1CCC(C)CC1)c1cc(C#CC(C)(C)C)sc1C(=O)O` (centres unmarked) [Compound 75]: in series [1], the IC50 was less than 0.1 µM. The CC50 in series [2] lay in the range of 10 to 100 µM.

As to `CC[C@@H](C(=O)N1CCN(C)CC1)N(c1cc(C#CC(C)(C)C)sc1C(=O)O)C(=O)[C@H]1CC[C@H](C)CC1` [Compound 82], the IC50 in series [1] and in series [3] was less than 0.1 µM throughout. The CC50 in series [2] was more than 100 µM.
